According to article PMC12250835, “Novel 3-Methyl-1,6-Diazaphenothiazine as an Anticancer Agent—Synthesis, Structure, and In Vitro Anticancer Evaluation” (Molecules, 2025):

Key:
[1] = tested on: A375 amelanotic melanoma cells; test: WST-1 cell viability assay, A375; assay type: cell-based; details: Homo sapiens, A-375, concentration range 1–100 µM
Protocol: (§1) Human A375, C32 amelanotic and COLO829, G361 melanotic melanoma cells, purchased from ATCC (ATCC Manassas, VA, USA), were incubated in a humidified 5% CO2 incubator at 37 °C. The cells were cultured in the recommended medium supplemented with inactivated fetal bovine serum and the following antibiotics: penicillin (100 U/mL), neomycin (10 μg/mL) and amphotericin B (0.25 μg/mL). Treatment with the studied compounds (B6–B10) began 24 h after seeding. The analyzed compound solutions were obtained by diluting stock solutions in a culture medium. The analysis via WST-1 assay was used for compound concentrations ranging from 1 µM to 100 µM. Other studies, concerning the assessment of intracellular GSH levels and apoptosis, were performed on the B8 and B10 derivatives at concentrations of 50 μM and 100 µM.
(§2) The viability of cells was assessed using the cell proliferation reagent WST-1. The reagent is a tetrazolium salt (slightly red) that can be reduced in viable cells to formazan dye (dark red) by mitochondrial dehydrogenases. In the analysis, WST-1 was added to cells cultured in 96-well microplates (10 µL/well) 3 h before the measurement. Absorbance at 440 nm was read using a microplate reader (Infinite 200 PRO, TECAN, Männedorf, Switzerland), and 650 nm was used as the reference wavelength. In the experiment, control samples were normalized to 100%. All the examined samples were calculated as percentages of the control.

[2] = tested on: C32 amelanotic melanoma cells; test: WST-1 cell viability assay, C32; assay type: cell-based; details: Homo sapiens, concentration range 1–100 µM
Protocol: as §1, §2

[3] = tested on: G361 melanotic melanoma cells; test: WST-1 cell viability assay, G361; assay type: cell-based; details: Homo sapiens, G-361, concentration range 1–100 µM
Protocol: as §1, §2

[4] = tested on: COLO829 melanotic melanoma cells; test: WST-1 cell viability assay, COLO829; assay type: cell-based; details: Homo sapiens, COLO-829, concentration range 1–100 µM
Protocol: as §1, §2

[5] = tested on: normal human fibroblasts (HDF); test: WST-1 cell viability assay, HDF; assay type: cell-based; details: for IC50: Homo sapiens, Fibroblast, concentration range 1–100 µM; for reduction in cell viability in comparison to the control: concentrations equal to and above 25 µM, all incubation time points
Protocol: [Worded in the source for another cell line; this cell line is reported under the same test.] as §1, §2

[6] = tested on: G361 melanotic melanoma cells; test: Vitality assay, intracellular GSH level, G361; assay type: cell-based, human; details: 72 h
Protocol: as §1
(§3) All the experiments were performed using the fluorescence image cytometer NucleoCounter® NC-3000™ (ChemoMetec, Lillerød, Denmark). For the vitality assay, treatment cells were stained with solution 5 according to the manufacturer’s protocol and analysis was conducted using NucleoView NC-3000 software 2.1.25.12 (ChemoMetec, Lillerød, Denmark) according to the vitality assay protocol.

[7] = tested on: C32 amelanotic melanoma cells; test: Vitality assay, intracellular GSH level, C32; assay type: cell-based, human; details: 72 h
Protocol: as §1, §3

[8] = tested on: G361 melanotic melanoma cells; test: Mitochondrial potential assay (JC-1), G361; assay type: cell-based, human; details: 72 h
Protocol: as §1
(§4) The mitochondrial potential assay was conducted using fluorescent cationic dye JC-1, which accumulates in the mitochondria in a potential-dependent manner. After cell treatment, samples were suspended in 12.5 µL of solution 7 (JC-1) (ChemoMetec, Lillerød, Denmark) and then incubated at 37 C for 10 min. In the next step, the […] cells were centrifuged for 5 min at 400× g, washed twice with PBS and resuspended in 0.25 mL of solution 8 (DAPI) (ChemoMetec, Lillerød, Denmark). In the last step of sample preparation, cells were loaded into 8-chamber NC-Slides A8™ and analyzed immediately using the mitochondrial potential assay protocol. Scatterplots of the obtained results were used to demarcate the percentage of cells with a different mitochondrial membrane potential.

[9] = tested on: C32 amelanotic melanoma cells; test: Mitochondrial potential assay (JC-1), C32; assay type: cell-based, human; details: 72 h
Protocol: as §1, §4

[10] = tested on: G361 melanotic melanoma cells; test: DNA fragmentation assay, G361; assay type: cell-based, human; details: G361, 100 µM, 72 h
Protocol: as §1
(§5) For the DNA fragmentation assay, cells were fixed with 70% cold ethanol (24 h at 0–4 °C). In the next step of the analysis, the cell samples were washed with PBS, centrifuged, and stained with solution 3 (ChemoMetec, Lillerød, Denmark) containing DAPI and 0.1% triton X-100 in PBS. The analysis was conducted according to the DNA fragmentation assay protocol.

[11] = tested on: C32 amelanotic melanoma cells; test: DNA fragmentation assay, C32; assay type: cell-based, human; details: 72 h
Protocol: as §1, §5

[12] = tested on: COLO829 cells; design: method as in PMID 31410885; details: 50 µM, 72 h incubation; cited from earlier work
[13] = tested on: C32 cells; design: method as in PMID 31432325; details: 50 µM, 72 h incubation; cited from earlier work

| Structure (SMILES) | IC50 ([1]; A375, 24 h exposure) | IC50 ([1]; A375, 48 h exposure) | IC50 ([1]; A375, 72 h exposure) | IC50 ([2]; C32, 24 h exposure) | IC50 ([2]; C32, 48 h exposure) | IC50 ([2]; C32, 72 h exposure) | IC50 ([3]; G361, 24 h exposure) | IC50 ([3]; G361, 48 h exposure) | IC50 ([3]; G361, 72 h exposure) | IC50 ([4]; COLO829, 24 h exposure) | IC50 ([4]; COLO829, 48 h exposure) | IC50 ([4]; COLO829, 72 h exposure) | IC50 ([5]; 24 h exposure) | IC50 ([5]; 48 h exposure) | IC50 ([5]; 72 h exposure) | reduction in cell viability in comparison to the control [5] | cells with low GSH levels (Q1ll, GSH-depleted cells) ([6]; G361, 50 µM) | cells with low GSH levels (Q1ll, GSH-depleted cells) ([6]; G361, 100 µM) | cells with low GSH levels (Q1ll, GSH-depleted cells) ([7]; C32, 50 µM) | cells with low GSH levels (Q1ll, GSH-depleted cells) ([7]; C32, 100 µM) | also measured |
| --- | --- | --- | --- | --- | --- | --- | --- | --- | --- | --- | --- | --- | --- | --- | --- | --- | --- | --- | --- | --- | --- |
| Cc1cnc2c(c1)Sc1ncccc1N2 [B6, 10H-3-methyl-1,6-diazaphenothiazine] | 226 µM | 97.9 µM | 40 µM | 94.3 µM | 76.1 µM | 18.1 µM | 134 µM | 56.2 µM | 22.9 µM | 262 µM | 59 µM | 30.2 µM | 83.1 µM | 40.1 µM | 31.9 µM | > 20% | – | – | – | – | – |
| Cc1cnc2c(c1)Sc1ncccc1N2C [B7, 3,10-dimethyl-1,6-diazaphenothiazine] | 235 µM | 99.5 µM | 17.6 µM | 91.4 µM | 89.7 µM | 22.2 µM | 194 µM | 75.4 µM | 41.6 µM | 292 µM | 64.8 µM | 35.5 µM | 55.4 µM | 31.7 µM | 30.5 µM | > 20% | – | – | – | – | – |
| C=CCN1c2cccnc2Sc2cc(C)cnc21 [B8, 3-metyhl-10-allyl-1,6-diazaphenothiazine] | 393 µM | 166 µM | 91.2 µM | 129 µM | 105 µM | 59.6 µM | 168 µM | 79.9 µM | 24.6 µM | 220 µM | 64.1 µM | 31.4 µM | – | 142 µM | 125 µM | – | 21% | 33% | 20% | 36% | viability reduction in comparison to the control ([5]; 75 µM and 100 µM, 48 h and 72 h of incubation): > 20%; depolarized (early apoptotic) cells (Q1lr) ([8]; G361, 50 µM): 13%; depolarized (early apoptotic) cells (Q1lr) ([8]; G361, 100 µM): 26%; depolarized cells, decreased mitochondrial membrane potential (Q1lr) ([9]; C32, 50 µM): 18%; depolarized cells, decreased mitochondrial membrane potential (Q1lr) ([9]; C32, 100 µM): 25%; cells with fragmented DNA (M1) [10]: 12%; cells with fragmented DNA (M1) ([11]; C32, 50 µM): 11%; cells with fragmented DNA (M1) ([11]; C32, 100 µM): 22% |
| C#CCN1c2cccnc2Sc2cc(C)cnc21 [B9, 3-methyl-10-propargyl-1,6-diazaphenothiazine] | 698 µM | 171 µM | 138 µM | 120 µM | 167 µM | 66.4 µM | 116 µM | 97 µM | 57 µM | 136 µM | 61.5 µM | 49.5 µM | 57.4 µM | 22.2 µM | 11.3 µM | > 20% | – | – | – | – | – |
| Cc1cnc2c(c1)Sc1ncccc1N2Cc1ccccc1 [B10, 3-methyl-10-benzyl-1,6-diazaphenothiazine] | 511 µM | 109 µM | 60.4 µM | 95.8 µM | 87 µM | 42.7 µM | 132 µM | 100 µM | 43 µM | 178 µM | 75.5 µM | 37 µM | 1930 µM | 932 µM | 656 µM | – | 13% | 25% | 12% | 22% | decrease of viability of cells ([5]; at any measurement point (1–100 µM; 24 h, 48 h, 72 h)): ≤ 10%; depolarized (early apoptotic) cells (Q1lr) ([8]; G361, 50 µM): 6%; depolarized (early apoptotic) cells (Q1lr) ([8]; G361, 100 µM): 17%; depolarized cells, decreased mitochondrial membrane potential (Q1lr) ([9]; C32, 50 µM): 15%; depolarized cells, decreased mitochondrial membrane potential (Q1lr) ([9]; C32, 100 µM): 21%; cells with fragmented DNA (M1) [10]: 10%; cells with fragmented DNA (M1) ([11]; C32, 100 µM): 10% |
| CN(C)/N=N/c1[nH]cnc1C(N)=O [dacarbazine] | – | – | – | – | – | – | – | – | – | – | – | – | – | – | – | – | – | – | – | – | maximum reduction in COLO829 cell viability [12]: about 25%; reduction in C32 cell viability (the analyzed parameter) [13]: about 50% |
